Results published in PMC8253137, “Microbiota-derived butyrate is an endogenous HIF prolyl hydroxylase inhibitor” (Gut Microbes, 2021).
Where two headings read alike, the source gives them in different places.

Key:
PHD2_181-402 [1] = target: T1, PHD2_181-402 (Homo sapiens, UniProt Q9GZT9); experiment: PHD2_181-402 inhibition assay (bioluminescent succinate detection, Succinate-Glo); type: biochemical; details: for IC50: read-out: True IC50; for fold less effective at inhibiting PHD2_181-402 (compared to butyrate): relative to butyrate true IC50
T1 sequence (Q9GZT9 181-402): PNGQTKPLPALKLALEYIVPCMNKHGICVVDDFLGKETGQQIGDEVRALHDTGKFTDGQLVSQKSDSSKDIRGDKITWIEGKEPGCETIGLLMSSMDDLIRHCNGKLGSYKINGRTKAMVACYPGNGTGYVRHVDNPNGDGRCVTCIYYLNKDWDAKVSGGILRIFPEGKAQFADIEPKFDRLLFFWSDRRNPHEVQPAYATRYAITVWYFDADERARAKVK
Method: PHD2_181-402 activity and inhibition assays were performed with the Succinate-Glo JmjC Demethylase/Hydroxylase Assay Kit (Promega) according to manufacturer protocol and as detailed in Alves et al. […] The enzymatic reaction was incubated at room temperature for 10 minutes, after which succinate formation was detected according to manufacturer protocol. […] Then, 20 µL of Succinate Detection Reagent II was added to the reactions and incubated for 10 min at room temperature before the luciferase-generated luminescence was recorded on a plate-reading luminometer. Succinate standard curves were used to determine the sensitivity and linear range of the bioluminescent succinate detection. […] Succinate standards were serially diluted two-fold from 15 µM to 58.6 nM and a 0 succinate blank. 10 µL of succinate standards were used for detection as described above. […] Reactions were incubated at room temperature for 10 minutes and succinate detected. […] Measured IC50s were calculated from fitting the percentage activity data to the [Inhibitor] vs. normalized response – variable slope least squares nonlinear regression in GraphPad Prism 9. True IC50s were calculated from measured IC50s with the equation derived by Wu et al.[26] describing the relationship between the measured IC50 of an inhibitor and the percentage of substrate conversion.

HDACs = tested on: HDACs; set-up: method as in PMID 18061431, PMID 30052654; details: cited from earlier work
T84 cells [2] = experiment: 2-OG levels in T84 cells; type: cell-based; details: 3 h, 10 mM butyrate or 30 μM IOX2
Method: (§1) T84 cells were cultured in 95% air with 5% CO2 at 37°C in standard media made of DMEM:F-12 supplemented with 10% calf serum, 1% penicillin/streptomycin, and 1% GlutaMAX™ (ThermoFisher Scientific) on 9.6 cm^2 6-well plates (ThermoFisher Scientific). Real-time oxygen sensing was done using the SensorDish Reader from Applikon Biotechnology as described previously with T84 cells plated on 0.33 cm^2 transwell inserts (Corning, 0.4 μm).[12] All MCPA treatments included a 2 h pretreatment with MCPA before treatment with butyrate.
(§2) Metabolites Extractions and HPLC-DAD: Cell and colon tissue metabolites were extracted and analyzed as previously described with minor variations.[61],[62] The metabolites were detected by absorption at wavelengths of 210, 254, and 280 nm, with their absorbance spectra and retention times verified by co-injection with authentic standards. Metabolites for HPLC-ESI MS analyses were resuspended in deionized water (pH 7.2).
HPLC-ESI MS: Analyses were performed on an Agilent Technologies 1260 Infinity II LC/MSD iQ with electrospray ionization (ESI) mass detection. Negative ion mass-to-charge ratios (m/z) were scanned from 50 to 500. The metabolite extracts were chromatographed using a Sepax Carbomix column (Pb-Np5:8%, 5 μm, non-porous, 4.6 × 300 mm) (mobile phase A: water; mobile phase B: acetonitrile; column temperature, 75°C). Chromatographic separation was performed using a combination of isocratic and gradient methods, including column washing and equilibration periods at the end (0 min: 100% A, 0.12 mL/min; 60 min: 100% A, 0.12 mL/min; 70 min: 70% A, 0.5 mL/min; 145 min: 70% A, 0.5 mL/min; 150 min: 100% A, 0.5 mL/min; 164 min, 100% A, 0.5 mL/min; 165 min, 100% A, 0.12 mL/min; 170 min, 100% A, 0.12 mL/min).

murine colon tissue [3] = experiment: Rectal gavage in antibiotic-treated SCFA-depleted mice; type: in vivo; details: rectal 100 mM butyrate or 1.5 mM IOX2, 1 h, after antibiotics
Method: (§3) C57BL/6 mice were purchased from Jackson Laboratories. Animals were maintained and bred in standard housing conditions under 24 h/day, 7 days/week veterinary care available at the University of Colorado Anschutz Medical Campus (AMC) animal facility. All animal procedures were reviewed and approved by the Institutional Animal Care and Use Committee at AMC. 8 to 10-week-old male and female mice were pre-administered an antibiotic cocktail consisting of 1 mg/mL ampicillin, gentamicin, and neomycin, 0.5 mg/mL vancomycin, and 0.25 mg/mL metronidazole for 5 d ad libitum in addition to water control mice. Mice were then given 200 µL of tributyrin daily for three days using reusable feeding needles (18060–20, Fine Science Tools). On the third day, 4 h prior to sacrifice, select mice given tributyrin were rectally given 100 μL of 60 mM MCPA with plastic gavage tubes (FTP-20-38-50, Instech) inserted 1 cm into the rectum without surgical lubricant. Whole colon tissue at the site of the rectal gavage was collected for metabolite analysis, while colon whole tissue and epithelial scrapings upstream from the gavage site was collected for RNA and protein analysis. In the second butyrate reconstitution experiment, mice were rectally given 100 μL of 100 mM butyrate, 100 mM butyrate with 10 mM MCPA, 1.5 mM IOX2, or PBS control under anesthesia. Mice were then sacrificed 1 h after rectal supplementation and colon tissues collected for metabolite, mRNA, and protein analysis from the site of the rectal gavage.
(§4) TRIzol® reagent (ThermoFisher Scientific) was used to isolate total RNA from T84 cells. Mouse colon tissue samples were harvested into RNAlater™ (Invitrogen) and stored at 4°C for 48 h. Total RNA was isolated from the tissues using RNeasy Plus Mini Kit (Qiagen). cDNA was prepared using the iScript cDNA Synthesis Kit (Bio-Rad). Quantitative PCR analysis was performed using the Power SYBR™ Green master mix (Applied Biosystems) in a thermocycler. Fold change in expression of target mRNA relative to β-actin (ACTB) mRNA was calculated using the delta-delta Ct method. Primer sequences used are as follows: hBNIP3 – forward, 5′- […] −3′, reverse, 5′- […] −3′; hBNIP3L – forward, 5′- […] −3′, reverse, 5′- […] −3′; hGLUT1 – forward, 5′- […] −3′, reverse, 5′- […] −3′; hACTB – forward, 5′- […]-3′, reverse, 5′- […]-3′; mBnip3 – forward, 5′- […] −3′, reverse, 5′- […] −3′; mBnip3l – forward, 5′- […] −3′, reverse, 5′- […] −3′; mGlut1 – forward, 5′- […] −3′, reverse, 5′- […] −3′; and mActb – forward, 5′- […] −3′, reverse, 5′- […] −3′.
(§5) T84 cells were rinsed with PBS and collected and lysed in 200 µL of radioimmunoprecipitation assay (RIPA, 50 mM Tris-HCl pH 8.0, 1 mM EDTA, 1% Triton X-100, […], 0.5% sodium deoxycholate, 150 mM NaCl) buffer with protease inhibitors on ice. Mouse colon samples were harvested into 350 µL of RIPA buffer and flash frozen in liquid nitrogen. Samples were homogenized by sonication, and insoluble materials removed by centrifugation at 10,000 g for 5 min at 4°C. Protein quantity of the supernatant was determined using the Bradford reagent. Laemmli sample buffer was added to each sample. Samples (20 µg) were run and separated on 8% SDS-PAGE gels and transferred to polyvinylidene fluoride (PVDF) membranes. Membranes were blocked overnight at 4°C in Tris-buffered saline with 1% Tween-20 (TBS-T) and 5% milk. […]

murine colon tissue [4] = experiment: Tributyrin oral gavage in antibiotic-treated SCFA-depleted mice; type: in vivo
Method: as §3, §4, §5

[5] = set-up: method as in PMID 10321503; details: mice, oral gavage with tributyrin, 1 h after dosing; cited from earlier work
PHD2_181-402 [6] = target: T1, PHD2_181-402; experiment: WaterLOGSY 1D NMR binding; details: 10 mM ligand, 25 μM PHD2_181-402
From the text: Next, we established whether butyrate binds directly to PHD2_181-402 using 1D WaterLOGSY NMR.[28] This method enables sensitive and robust detection of binding (dissociation constants as weak as μM to low mM) based on the magnetization transfer between water molecules, proteins, and ligands of interest in close proximity via dipolar proton–proton cross-relaxation (nuclear Overhauser effect, NOE). […] Binding and non-binding ligands can be distinguished in a WaterLOGSY spectrum via their opposite signs in relation to water for their corresponding peaks.
Following an established protocol, all NMR analyses were performed using PHD2_181-402 and the diamagnetic element (Zn^2+) rather than a paramagnetic element such as Fe^2+ that would result in inhibitive signal reduction or loss due to fast relaxation induced by the unpaired electron.[63]
Water-Ligand Observed via Gradient SpectroscopY (WaterLOGSY): Measurements were carried out on a 600 MHz triple-resonance Bruker cryoprobe spectrometer.[28] Selective water inversion was achieved using an iBURP shaped pulse with 15 ms length and an inversion bandwidth of 0.4 ppm. The mixing time was set to 1 s, and the water was suppressed using double Watergate. 1024 scans were acquired with an interscan delay of 2 s. The sample concentration was 25 µM of PHD2_181-402 mixed with 10 mM of the different ligands in NMR buffer (Tris 50 mM, NaCl 20 mM, ZnCl2 100 μM) at pH 6.5.

T84 cells [7] = experiment: Butyrate metabolism and oxygen consumption in T84 cells; type: cell-based
Method: as §1, §2

rat hepatocytes = tested on: rat hepatocytes; set-up: method as in PMID 9124539; details: cited from earlier work
[8] = 1 μM PHD2_181-402, 10 μM 2-OG, 10 μM Fe(II), 10 μM HIF-1α547-581 peptide, 100 μM ascorbic acid, 10-minute reaction, calculated from measured IC50 accounting for substrate conversion, error SEM

Compound	IC50 (PHD2_181-402 [1]; [8])	fold less effective at inhibiting PHD2_181-402 (compared to butyrate) (PHD2_181-402 [1])	binding to PHD2_181-402 (WaterLOGSY signal) (PHD2_181-402 [6])	HDAC inhibition (HDACs)	also measured
COC(=O)CNC(=O)C(=O)OC [DMOG, dimethyloxalylglycine, reference compound]	1.9 ± 0.5 mM	–	–	–	change of IC50 with increasing 2-OG (PHD2_181-402 [1]; 2-OG at 1, 5, 10, 40 or 100 µM): increased significantly
CCCCCC(=O)O [Hexanoate]	–	~ 3 fold	–	lesser degrees of HDAC inhibition	IC50 (PHD2_181-402 [1]): 17 ± 3 mM
O=C(O)CNC(=O)c1c(O)c2ccccc2n(Cc2ccccc2)c1=O [IOX2, reference compound]	–	–	–	–	2-OG levels compared to control (T84 cells [2]): lesser extent than butyrate; mRNA expression of HIF-1α targets Bnip3, Bnip3l, Glut1 (murine colon tissue [3]; colon tissue): rescued; colon tissue 2-OG levels (murine colon tissue [3]): rescued
CCCC(=O)OCC(COC(=O)CCC)OC(=O)CCC [tributyrin]	–	–	–	–	HIF-1α protein (murine colon tissue [4]; epithelial scrapings and whole-colon tissue, tributyrin 200 µL, 3 d, with or without MCPA): rescued; colon tissue 2-OG levels (murine colon tissue [4]; tributyrin 200 µL, 3 d, with or without MCPA): recovered; colon tissue butyrate levels (murine colon tissue [4]; tributyrin 200 µL, 3 d, with or without MCPA, versus antibiotics (glycerol control)): rescued; HIF-1α target gene Bnip3l mRNA (murine colon tissue [4]; whole-colon tissue and epithelial scrapings, tributyrin 200 µL oral gavage daily for 3 d, with or without 60 mM MCPA rectal 4 h): normalized; plasma butyrate concentrations [5]: > 1 mM
CC(O)CC(=O)O (stereo not shown) [3-Hydroxybutyrate]	14 ± 1 mM	–	–	–	–
C=C1CC1CC(=O)O (stereo not shown) [MCPA, methylene cyclopropyl acetic acid]	–	–	–	–	butyrate metabolism (T84 cells [7]; 600 μM butyrate with 1 mM MCPA, 0 to 6 h): reduced butyrate metabolism; butyrate-associated oxygen consumption (T84 cells [7]; 5 mM butyrate with 1 mM MCPA, 30 min): eliminated the increase in oxygen consumption; colon tissue butyrate level compared to tributyrin alone (murine colon tissue [4]; 60 mM MCPA rectal gavage 4 h in mice given tributyrin): significantly increased; reduction of acetyl-CoA levels (rat hepatocytes): 70–90%

Second part, led by results:

IC50 (PHD2_181-402 [1]; [8])	fold less effective at inhibiting PHD2_181-402 (compared to butyrate) (PHD2_181-402 [1])	binding to PHD2_181-402 (WaterLOGSY signal) (PHD2_181-402 [6])	Compound	HDAC inhibition (HDACs)	also measured
77 ± 6 mM	–	–	CCC(CC)C(=O)O [2-Ethylbutyrate]	–	–
–	~ 3 fold	no binding	CCCCC(=O)O [Valerate]	lesser degrees of HDAC inhibition	IC50 (PHD2_181-402 [1]): 16 ± 3 mM
60 ± 10 mM	~ 10 fold	no binding	CCC(=O)O [Propionate]	lesser degrees of HDAC inhibition	–
50 ± 10 mM	~ 10 fold	no binding	CC(=O)O [Acetate]	none	–
